What all share (assay): NCI tumour cell line growth inhibition, 48 h
In experiment [1] the test system is ACHN renal.
Experiment [2] deals with RXF 393 renal.
The test system of experiment [3] is MDA-MB-231 breast.
The test system of experiment [4] is SR leukemia.
For experiment [5], the system named is IGROV1 ovarian.
Experiment [6] relates to SNB-19 CNS.
Experiment [7] relates to T-47D breast.
In experiment [8] the test system is SF-539 CNS.
In experiment [9] the test system is MCF7 breast.
In experiment [10] the test system is NCI-H522 lung.

Drawing on PubChem BioAssay (NCI), this text covers GI50 and TGI for nine compounds.

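Five compound concentrations were applied to cells in 96-well plates for 48 hours; endpoints were derived by simple linear interpolation of the resulting dose-response curve. GI50: concentration for 50% inhibition of growth. TGI: concentration producing complete growth inhibition.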 Bounds are passed on as bounds.

`CCOC(=O)c1c2c(n3ccc(NC(=O)CCN4CCCC4)cc13)C(=O)c1ncccc1C2=O`: the GI50 in [1] was 0.0382 µM; in experiment [2] it was 1.41 µM; in [3], 1.84 µM; in [5] it was 1.01 µM; in experiment [6], 1.17 µM; in experiment [7], 1.7 µM. Also, the GI50 in [8] is 1.52 µM. Also, the TGI in [1] stood at 1.52 µM; in [2], 3.36 µM; in [3], 3.83 µM; in [4], 1.39 µM; in [5], 3.27 µM; in [6] it was 3.54 µM. For the same compound, the TGI in [7] was 4.24 µM; in experiment [8], 3.19 µM.
As for `O=C(NNc1nc(Cl)nc(N2CCN(C(c3ccccc3)c3ccccc3)CC2)n1)c1ccccc1`, the GI50 in experiment [1] is 1.75 µM; in experiment [2] it was 1.62 µM; in experiment [3] it was 1.96 µM; in experiment [5] it was 1.66 µM; in experiment [9] it was 6.44 µM; in experiment [6] it was 1.76 µM. Also, the GI50 in [7] was 3.41 µM; in [8], 1.73 µM. In addition, the TGI in experiment [1] is 3.17 µM; in experiment [2] it was 3.13 µM; in [3], 3.77 µM; in experiment [5] it was 3.06 µM; in experiment [9] it was over 100 µM; in experiment [6], 3.33 µM. Also, the TGI in [7] is over 100 µM; in experiment [8], 3.15 µM.
With `CCOc1cc2ncc(C#N)c(Nc3ccc(OCc4cccc(F)c4)c(Cl)c3)c2cc1NC(=O)CC1CCSS1` (stereo not given), the GI50 in experiment [1] was 3.1 µM; in [2], 2.35 µM; in experiment [3], 1.02 µM; in experiment [4] it was 0.68 µM; in experiment [10], over 6.9 µM; in [5] it was 0.578 µM. In addition, the results for the GI50 in experiment [6], in experiment [7] and in experiment [8] were over 25 µM, 0.978 µM and 2.28 µM, respectively. Moreover, the TGI in experiment [1] was over 25 µM; in experiment [2], 15.8 µM; in experiment [3], over 25 µM; in [4], over 25 µM; in [10], over 25 µM; in experiment [5] it was over 6.27 µM. Besides, the TGI in experiment [6], in [7] and in experiment [8] was over 25 µM in each case.
Regarding `COc1ccc2cc(C(=O)/C=C/c3cc(OC)c(OC)c(OC)c3)ccc2c1`, the GI50 in experiment [1] is 7.17 µM; in [3] it was 1.02 µM; in experiment [4], 1.32 µM; in experiment [5], 5.49 µM; in [6], 12.9 µM; in experiment [7] it was over 50 µM. The TGI in [1] is 18.2 µM; in experiment [3], 15.8 µM; in [4], over 50 µM; in experiment [5], 18.5 µM; in [6] it was 26.3 µM; in [7] it was over 50 µM.
Regarding `COc1ccc2nc(N/N=C(\C)c3ccccn3)cc(C)c2c1`, the GI50 in [1] was 0.22 µM; in experiment [3], 0.232 µM; in experiment [4], 0.0592 µM; in [10] it was 0.292 µM; in [5], 0.219 µM; in experiment [9], 0.288 µM. In addition, the GI50 in experiment [6] was 0.382 µM; in [7], 0.0766 µM; in experiment [8], 0.269 µM. Also, the TGI in experiment [1] was determined as 1.21 µM; in experiment [3], 1.87 µM; in experiment [4], 0.452 µM; in [10] it was 1.88 µM; in [5] it was 1.05 µM; in experiment [9] it was 1.07 µM. Also, the TGI in experiment [6] is 2.12 µM; in experiment [7], 1.61 µM; in experiment [8] it was 1.23 µM.
With `ClCc1cccc(Cn2cnc3c(Cl)ncnc32)c1`, the GI50 in experiment [1] is 2.08 µM; in experiment [2], 2.28 µM; in experiment [3] it was 1.99 µM; in experiment [10], 18.6 µM; in [5], 9.31 µM; in experiment [9], 7.8 µM. Also, the values for the GI50 in experiment [6], in experiment [7] and in experiment [8] were 2.66 µM, 3.02 µM and 20.1 µM, respectively. In addition, the TGI in experiment [1] was determined as 4.09 µM; in [2] it was 24 µM; in experiment [3], 4.04 µM; in [10], 65.4 µM; in experiment [5], 33.5 µM; in experiment [9] it was 77.7 µM. Also, the TGI in experiment [6] stood at 12.5 µM; in experiment [7], 12.3 µM; in experiment [8], 35.3 µM.
Take `Nc1nc(SCc2ccccn2)c2ncn(C3CCCC3)c2n1`: the TGI in experiment [1], in experiment [2], in experiment [3], in experiment [4], in experiment [10] and in experiment [5] was over 100 µM in each case. Also, the TGI in experiment [9], in experiment [6] and in [7] was over 100 µM each time.
For `CN(C)c1cccc2c(S(=O)(=O)N[C@H]3CC[C@H]4[C@@H]5CCc6cc(O)ccc6[C@H]5CC[C@]34C)cccc12`, the GI50 is 3.1 µM in experiment [1]; 2.02 µM in experiment [2]; 1.75 µM in experiment [3]; 2.79 µM in experiment [4]; 3.45 µM in [5]; 2.59 µM in experiment [9]. The GI50 in [6] was 3.43 µM; in experiment [7], 3.47 µM; in experiment [8], 1.88 µM. The TGI was 14.1 µM in experiment [1]; 4.34 µM in experiment [2]; 4.41 µM in experiment [3]; over 100 µM in experiment [4]; 16.2 µM in experiment [5]; over 100 µM in [9]. The TGI in experiment [6] is over 100 µM; in [7], 30.1 µM; in [8], 4.14 µM.
As for `COc1ccc(-c2nc3sc(C)cn3c2/C=C/C(=O)c2cc(OC)c(OC)c(OC)c2)cc1`, the GI50 in experiment [1] is 4.13 µM; in [3], 3.78 µM; in experiment [10], 0.88 µM; in [5], 1.65 µM; in experiment [9], 3.13 µM; in [6] it was 4.55 µM. The values for the GI50 in experiment [7] and in experiment [8] were 2.42 µM and 4.28 µM, respectively. The TGI in experiment [1] is over 100 µM; in [3], over 100 µM; in experiment [10] it was 3.14 µM; in experiment [5], 4.33 µM; in experiment [9], over 100 µM; in experiment [6] it was over 100 µM. In addition, the TGI is 8.94 µM in [7] and over 100 µM in [8].
